The values below come from patent US8921406B2, “5-ring heteroaromatic compounds and their use as binding partners for 5-HT5 receptors” (AbbVie Deutschland GmbH & Co. KG, priority 2005, dated 2014).

Structures can show the parent of a compound that is named as a salt.

The target of this experiment is T1, h5-HT5A receptor (Homo sapiens, UniProt P47898).
T1 construct: expressed in transfected cells
T1 sequence (P47898 whole entry): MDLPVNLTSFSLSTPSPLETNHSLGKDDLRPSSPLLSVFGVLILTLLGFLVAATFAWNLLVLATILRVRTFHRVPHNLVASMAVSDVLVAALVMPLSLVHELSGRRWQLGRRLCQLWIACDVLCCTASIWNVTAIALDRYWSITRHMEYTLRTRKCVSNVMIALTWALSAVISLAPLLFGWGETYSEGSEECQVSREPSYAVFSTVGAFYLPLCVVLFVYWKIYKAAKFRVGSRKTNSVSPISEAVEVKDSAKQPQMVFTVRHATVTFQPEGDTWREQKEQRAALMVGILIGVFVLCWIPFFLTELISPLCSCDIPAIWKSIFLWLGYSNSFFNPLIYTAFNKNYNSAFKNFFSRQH
The experiment in a line: h5-HT5A-[3H]5-CT binding assay. The note with it: membranes of HEK293 cells expressing h5-HT5A; 2.5 nM [3H]5-CT; read-out: Binding affinity 5-HT5A (Ki). On the procedure: 1. h5-HT5A-[^3H]5-CT Binding Assay
Membranes of HEK293 cells which permanently express the h5-HT5A receptor gene were incubated in 100 mM tris-HCl buffer (pH 7.7) containing 1 mM EDTA, in the presence of 2.5 nM [^3H]5-CT (total volume 600 μL). The total binding is defined as the binding that is observed when the membranes are incubated in the presence of only the radioligand. The inhibition induced by the compound is determined by incubation of cell membranes in the presence of the radioligand and various concentrations of the compound of interest. Nonspecific binding is defined as the [^3H]5-CT binding obtained by incubation of the membranes, the same as for the total binding, but in the presence of 10 μM methiothepine. Following incubation for 75 min at 30° C., the membrane suspension was filtered through a GF/B-Filter coated with 0.03% PEI, using a Skatron® harvesting system. The residual radioactivity in the filter was quantified by liquid scintillation counting.
Various concentrations of the test substances were used in both assays, and the Ki or IC50 values were determined.
Take `COc1ccccc1Cn1cc(-c2ccc(Br)cc2)nc1N` [Example 1, 4-(4-Bromophenyl)-1-(2-methoxybenzyl)-1H-imidazole-2-ylamine]: the Ki was less than 600 nM.

As to `COc1ccccc1Cn1cc(-c2ccc([N+](=O)[O-])cc2)nc1N` [Example 2, 1-(2-Methoxybenzyl)-4-(4-nitrophenyl)-1H-imidazole-2-ylamine], the Ki is less than 600 nM.

Take `COc1ccccc1Cc1nc(-c2ccccc2)[nH]c1N` [Example 3, 5-(2-Methoxybenzyl)-2-phenyl-3H-imidazole-4-ylamine]: the Ki is less than 600 nM.

Take `COc1ccccc1Cc1cn(-c2ccccc2)nc1N` [Example 4, 4-(2-Methoxybenzyl)-1-phenyl-1H-pyrazole-3-ylamine]: the Ki was more than 600 nM.

As to `COc1ccccc1Cn1nc(-c2ccccc2)nc1N` [Example 5, 2-(2-Methoxybenzyl)-5-phenyl-4H-[1,2,4]triazole-3-ylamine], the Ki is more than 600 nM.

On to `COc1ccc(-n2cc(Cc3ccccc3OC)c(N)n2)cc1` [Example 6, 4-(2-Methoxybenzyl)-1-(4-methoxyphenyl)-1H-pyrazole-3-ylamine], for which the Ki is more than 600 nM.

With `COc1ccccc1Cc1cn(-c2ccc(F)cc2)nc1N` [Example 7, 1-(4-Fluorophenyl)-4-(2-methoxybenzyl)-1H-pyrazole-3-ylamine], the Ki is more than 600 nM.

On to `COc1cccc(OC)c1Cn1cc(-c2ccccc2)nc1N` [Example 8, 1-(2,6-Dimethoxybenzyl)-4-phenyl-1H-imidazole-2-ylamine hydrochloride], for which the Ki is less than 600 nM.

`COc1ccccc1Cn1cc(-c2ccccc2)nc1NC(C)=O` [Example 9, N-[1-(2-Methoxybenzyl)-4-phenyl-1H-imidazole-2-yl]acetamide]: the Ki is more than 600 nM.

Regarding `COc1ccccc1Cn1cc(-c2ccccc2)nc1N` [Example 10, 1-(2-Methoxybenzyl)-4-phenyl-1H-imidazole-2-ylamine hydrochloride], the Ki is less than 600 nM.

As for `COc1ccccc1Cn1cc(C(C)(C)C)nc1N` [Example 11, 4-tert-Butyl-1-(2-methoxybenzyl)-1H-imidazole-2-ylamine], the Ki was more than 600 nM.

Take `COc1ccccc1Cn1cc(-c2ccc(F)cc2)nc1N` [Example 12, 4-(4-Fluorophenyl)-1-(2-methoxybenzyl)-1H-imidazole-2-ylamine]: the Ki was less than 600 nM.

With `COc1ccccc1Cn1cc(-c2cccs2)nc1N` [Example 13, 1-(2-Methoxybenzyl)-4-thiophene-2-yl-1H-imidazole-2-ylamine], the Ki is less than 600 nM.

Take `COc1ccccc1Cn1c(N)nc(-c2ccccc2)c1C` [Example 14, 1-(2-Methoxybenzyl)-5-methyl-4-phenyl-1H-imidazole-2-ylamine]: the Ki is less than 600 nM.

Take `COc1ccccc1Cn1cc(-c2ccco2)nc1N` [Example 15, 4-Furan-2-yl-1-(2-methoxybenzyl)-1H-imidazole-2-ylamine hydrochloride]: the Ki is less than 600 nM.

Consider `COc1ccccc1Cn1cc(-c2ccc3ccccc3c2)nc1N` [Example 16, 1-(2-Methoxybenzyl)-4-naphthalene-2-yl-1H-imidazole-2-ylamine hydrochloride], for which the Ki was less than 600 nM.

Regarding `COc1ccccc1Cn1cc(-c2csc3ccccc23)nc1N` [Example 17, 4-Benzo[b]thiophene-3-yl-1-(2-methoxybenzyl)-1H-imidazole-2-ylamine hydrochloride], the Ki is less than 600 nM.

On to `COc1cccc(OC)c1Cn1cc(-c2ccc(F)cc2)nc1N` [Example 18, 1-(2,6-Dimethoxybenzyl)-4-(4-fluorophenyl)-1H-imidazole-2-ylamine], for which the Ki was less than 600 nM.

As to `COc1cccc(OC)c1Cn1cc(-c2cccs2)nc1N` [Example 19, 1-(2,6-Dimethoxybenzyl)-4-thiophene-2-yl-1H-imidazole-2-ylamine], the Ki is less than 600 nM.

`COc1ccccc1Cn1cc(-c2ccsc2)nc1N` [Example 20, 1-(2-Methoxybenzyl)-4-thiophene-3-yl-1H-imidazole-2-ylamine hydrochloride]: the Ki was less than 600 nM.

With `CCOC(=O)c1cn(Cc2ccccc2OC)c(N)n1` [Example 21, 2-Amino-1-(2-methoxybenzyl)-1H-imidazole-4-carboxylic acid ethyl ester], the Ki is more than 600 nM.

Take `COc1ccccc1Cn1cc(-c2ccc(OC(F)(F)F)cc2)nc1N` [Example 22, 1-(2-Methoxybenzyl)-4-(4-trifluoromethoxyphenyl)-1H-imidazole-2-ylamine]: the Ki is less than 600 nM.

Regarding `COc1cccc(-c2cn(Cc3ccccc3OC)c(N)n2)c1` [Example 23, 1-(2-Methoxybenzyl)-4-(3-methoxyphenyl)-1H-imidazole-2-ylamine], the Ki is less than 600 nM.

On to `COc1ccccc1Cn1cc(C23CC4CC(CC(C4)C2)C3)nc1N` [Example 24, 4-Adamantane-1-yl-1-(2-methoxybenzyl)-1H-imidazole-2-ylamine], for which the Ki is less than 600 nM.

Turning to `COc1cccc(OC)c1Cn1cc(-c2ccc(C#N)cc2)nc1N` [Example 25, 4-[2-Amino-1-(2,6-dimethoxybenzyl)-1H-imidazole-4-yl]benzonitrile hydrochloride], the Ki was less than 600 nM.

Turning to `COc1ccccc1-c1cn(Cc2c(OC)cccc2OC)c(N)n1` [Example 26, 1-(2,6-Dimethoxybenzyl)-4-(2-methoxyphenyl)-1H-imidazole-2-ylamine hydrochloride], the Ki was less than 600 nM.

In the case of `COc1ccccc1Cn1cc(-c2ccc(C)cc2)nc1N` [Example 27, 1-(2-Methoxybenzyl)-4-p-tolyl-1H-imidazole-2-ylamine], the Ki is less than 600 nM.

Consider `COc1cccc(Cl)c1Cn1cc(-c2ccsc2)nc1N` [Example 28, 1-(2-Chloro-6-methoxybenzyl)-4-thiophene-3-yl-1H-imidazole-2-ylamine], for which the Ki was less than 600 nM.

With `COc1cccc(Cl)c1Cn1cc(-c2ccc(OC(F)(F)F)cc2)nc1N` [Example 29, 1-(2-Chloro-6-methoxybenzyl)-4-(4-trifluoromethoxyphenyl)-1H-imidazole-2-ylamine], the inhibition constant (Ki) was less than 600 nM.

For the compound `CCOC(=O)c1cc(-c2cn(Cc3ccccc3OC)c(N)n2)on1` [Example 30, 5-[2-Amino-1-(2-methoxybenzyl)-1H-imidazole-4-yl]isoxazole-3-carboxylic acid ethyl ester], the Ki is more than 600 nM.

As to `COc1cccc(F)c1Cn1cc(-c2ccsc2)nc1N` [Example 31, 1-(2-Fluoro-6-methoxybenzyl)-4-thiophene-3-yl-1H-imidazole-2-ylamine], the Ki was less than 600 nM.

As to `COc1ccc(-c2cn(Cc3c(Cl)cccc3OC)c(N)n2)cc1` [Example 32, 1-(2-Chloro-6-methoxybenzyl)-4-(4-methoxyphenyl)-1H-imidazole-2-ylamine], the Ki was less than 600 nM.

As to `COc1cccc(F)c1Cn1cc(-c2ccc(C#N)cc2)nc1N` [Example 33, 4-[2-Amino-1-(2-fluoro-6-methoxybenzyl)-1H-imidazole-4-yl]benzonitrile], the Ki was less than 600 nM.

Consider `COc1cccc(Cl)c1Cn1cc(-c2ccc(Cl)cc2)nc1N` [Example 34, 1-(2-Chloro-6-methoxybenzyl)-4-(4-chlorophenyl)-1H-imidazole-2-ylamine], for which the Ki was less than 600 nM.

Turning to `COc1ccccc1Cn1cc(-c2ccc(Cl)cc2Cl)nc1N` [Example 35, 4-(2,4-Dichlorophenyl)-1-(2-methoxybenzyl)-1H-imidazole-2-ylamine hydrochloride], the Ki was less than 600 nM.

Turning to `COc1ccccc1Cn1cc(-c2ccc(C)o2)nc1N` [Example 36, 1-(2-Methoxybenzyl)-4-(5-methylfuran-2-yl)-1H-imidazole-2-ylamine], the Ki is less than 600 nM.

As to `COc1cccc(Cl)c1Cn1cc(-c2cccs2)nc1N` [Example 37, 1-(2-Chloro-6-methoxybenzyl)-4-thiophene-2-yl-1H-imidazole-2-ylamine], the Ki was less than 600 nM.

As to `COc1ccccc1Cn1cc(-c2ccc(C)s2)nc1N` [Example 38, 1-(2-Methoxybenzyl)-4-(5-methylthiophene-2-yl)-1H-imidazole-2-ylamine], the Ki is less than 600 nM.

Take `COc1ccccc1Cn1cc(-c2ccc(C(C)C)cc2)nc1N` [Example 39, 4-(4-Isopropylphenyl)-1-(2-methoxybenzyl)-1H-imidazole-2-ylamine]: the Ki is less than 600 nM.

In the case of `COc1cccc(OC)c1Cn1cc(-c2ccc(C)c(C)c2)nc1N` [Example 40, 1-(2,6-Dimethoxybenzyl)-4-(3,4-dimethylphenyl)-1H-imidazole-2-ylamine hydrochloride], the Ki is less than 600 nM.

For the compound `COc1ccccc1Cn1c(Cc2ccccc2)cnc1N` [Example 41, 5-Benzyl-1-(2-methoxybenzyl)-1H-imidazole-2-ylamine], the Ki was less than 600 nM.

For the compound `COc1ccccc1Cn1cc(-c2cc3ccccc3o2)nc1N` [Example 42, 4-Benzofuran-2-yl-1-(2-methoxybenzyl)-1H-imidazole-2-ylamine], the Ki is less than 600 nM.

For `COc1ccccc1Cn1cc(-c2cccc3ccccc23)nc1N` [Example 43, 1-(2-Methoxybenzyl)-4-naphthalene-1-yl-1H-imidazole-2-ylamine], the Ki was less than 600 nM.

In the case of `COc1ccccc1Cn1cc(-c2ccc(Oc3ccccc3)cc2)nc1N` [Example 44, 1-(2-Methoxybenzyl)-4-(4-phenoxyphenyl)-1H-imidazole-2-ylamine hydrochloride], the inhibition constant Ki was less than 600 nM.

In general, Ki refers to a measure of affinity in units of concentration, obtained from inhibition or displacement.
